Test results taken from patent US20070128217A1 (priority 2003, published 2007).

Columns and labels:
[1] = test system: rabbit serum obtained by immunizing a rabbit with the SARS-CoV strain Frankfurt 1; format: binding; parameters: Binding of a rabbit serum to linear peptides / Binding of a rabbit serum to looped peptides / Rabbit serum linear peptides / Rabbit serum looped peptides / Binding of a rabbit serum to linear peptides of protein N of SARS-CoV Urbani (Rabbit serum linear peptides) / Binding of a rabbit serum to looped/cyclic peptides of protein N of SARS-CoV Urbani (Rabbit serum looped peptides): unit not given here
[2] = test system: antibodies in sera from SARS patients (sera 1a, 1b, 2, 6, 37, 62, London, SARS-yellow, SARS-green); format: binding, human; parameters: Binding of serum 6 to linear peptides of protein X1 of SARS-CoV Urbani / Binding of serum 37 to linear peptides of protein X1 of SARS-CoV Urbani / Binding of serum 6 to looped/cyclic peptide (PEPSCAN-ELISA) / Binding of serum 37 to looped/cyclic peptide (PEPSCAN-ELISA) / Binding of serum 37 to looped/cyclic peptides of protein X1 of SARS-CoV Urbani / Binding of serum 6 to linear peptides of protein X2 / Binding of serum 37 to linear peptides of protein X2 / Binding of serum 37 to looped/cyclic peptides of protein X2 of SARS-CoV Urbani / Binding of serum 6 to linear peptides of protein M of SARS-CoV Urbani / Binding of serum 37 to linear peptides of protein M of SARS-CoV Urbani / Binding of serum 6 to looped/cyclic peptides of protein M of SARS-CoV Urbani / Binding of serum 37 to looped/cyclic peptides of protein M of SARS-CoV Urbani / Binding of serum 6 to linear peptides of protein X3 of SARS-CoV Urbani / Binding of serum 37 to linear peptides of protein X3 of SARS-CoV Urbani / Binding of serum 37 to looped/cyclic peptides of protein X3 of SARS-CoV Urbani / Binding of serum 6 to linear peptides of protein X4 of SARS-CoV Urbani / Binding of serum 37 to linear peptides of protein X4 of SARS-CoV Urbani / Binding of serum 37 to looped/cyclic peptides of protein X4 of SARS-CoV Urbani / Binding of serum 6 to linear peptides of protein X5 of SARS-CoV Urbani / Binding of serum 37 to linear peptides of protein X5 of SARS-CoV Urbani / Binding of serum 37 to looped/cyclic peptides of protein X5 of SARS-CoV Urbani / Binding of serum 6 to linear peptides of protein N of SARS-CoV Urbani / Binding of serum 37 to linear peptides of protein N of SARS-CoV Urbani / Binding of serum 6 to linear peptide (PEPSCAN-ELISA) / Binding of serum 1a to looped/cyclic peptides of protein N of SARS-CoV Urbani / Binding of serum 1b to looped/cyclic peptides of protein N of SARS-CoV Urbani / Binding of serum 2 to looped/cyclic peptides of protein N of SARS-CoV Urbani / Binding of serum 6 to looped/cyclic peptides of protein N of SARS-CoV Urbani / Binding of serum 37 to looped/cyclic peptides of protein N of SARS-CoV Urbani / Binding of serum 62 to looped/cyclic peptides of protein N of SARS-CoV Urbani / Binding of serum London to looped/cyclic peptides of protein N of SARS-CoV Urbani / Binding of serum SARS-green to looped/cyclic peptides of protein N of SARS-CoV Urbani: unit not given here
[3] = test system: recombinant human anti-SARS-CoV antibody 03-018; format: binding; parameters: Binding of antibody 03-018 to linear peptides of the N protein of SARS-CoV Urbani / Binding of antibody 03-018 to looped/cyclic peptides of the N protein of SARS-CoV Urbani: unit not given here
[4] = test system: control sera (pooled serum of ten healthy LUMC hospital workers; commercial negative donor pooled serum from the Dutch bloodbank); format: binding, human; parameters: Binding of Control serum LUMC to linear peptides / Binding of Control serum Blood-bank to linear peptides / Binding of Control serum LUMC to looped peptides / Binding of Control Serum Blood-Bank to Looped peptides / Binding of Control serum LUMC to linear peptides of the protein M of SARS-CoV Urbani / Binding of Control serum Blood-bank to linear peptides of the protein M of SARS-CoV Urbani / Binding of Control serum LUMC to looped peptides of the protein M of SARS-CoV Urbani / Binding of Control Serum Blood-Bank to Looped peptides of the protein M of SARS-CoV Urbani: unit not given here

RSRGNSRNSTPGSSR
Binding of a rabbit serum to linear peptides of protein N of SARS-CoV Urbani (Rabbit serum linear peptides) [1]: 0.4
Binding of a rabbit serum to looped/cyclic peptides of protein N of SARS-CoV Urbani (Rabbit serum looped peptides) [1]: 1.1
Binding of serum 1a to linear peptide (PEPSCAN-ELISA) [2]: 0.7
Binding of serum 1a to looped/cyclic peptides of protein N of SARS-CoV Urbani [2]: 0.3
Binding of serum 1b to linear peptide (PEPSCAN-ELISA) [2]: 0.4
Binding of serum 1b to looped/cyclic peptides of protein N of SARS-CoV Urbani [2]: 0.1
Binding of serum 2 to linear peptide (PEPSCAN-ELISA) [2]: 0.2
Binding of serum 2 to looped/cyclic peptides of protein N of SARS-CoV Urbani [2]: 0.2
Binding of serum 6 to linear peptide (PEPSCAN-ELISA) [2]: 0.2
Binding of serum 6 to looped/cyclic peptides of protein N of SARS-CoV Urbani [2]: 0.2
Binding of serum 37 to linear peptide (PEPSCAN-ELISA) [2]: 0.7
Binding of serum 37 to looped/cyclic peptides of protein N of SARS-CoV Urbani [2]: 0.2
Binding of serum 62 to linear peptide (PEPSCAN-ELISA) [2]: 0.6
Binding of serum 62 to looped/cyclic peptides of protein N of SARS-CoV Urbani [2]: 0.1
Binding of serum London to linear peptide (PEPSCAN-ELISA) [2]: 0.5
Binding of serum London to looped/cyclic peptides of protein N of SARS-CoV Urbani [2]: 0.2
Binding of serum SARS-green to linear peptide (PEPSCAN-ELISA) [2]: 0.2
Binding of serum SARS-green to looped/cyclic peptides of protein N of SARS-CoV Urbani [2]: 0.1
Binding of serum SARS-yellow to linear peptide (PEPSCAN-ELISA) [2]: 0.6
Binding of serum SARS-yellow to looped/cyclic peptides of protein N of SARS-CoV Urbani [2]: 0.1
Binding of antibody 03-018 to linear peptides of the N protein of SARS-CoV Urbani [3]: 0.1
Binding of antibody 03-018 to looped/cyclic peptides of the N protein of SARS-CoV Urbani [3]: 0.2
Binding of Control Serum Blood-Bank to Looped peptides [4]: 0.3
Binding of Control serum Blood-bank to linear peptides [4]: 0.8
Binding of Control serum LUMC to linear peptides [4]: 0.6
Binding of Control serum LUMC to looped peptides [4]: 0.3

KTFPPTEPKKDKKKK
Binding of a rabbit serum to linear peptides of protein N of SARS-CoV Urbani (Rabbit serum linear peptides) [1]: 0.1
Binding of a rabbit serum to looped/cyclic peptides of protein N of SARS-CoV Urbani (Rabbit serum looped peptides) [1]: 0.1
Binding of serum 1a to linear peptides of protein N of SARS-CoV Urbani [2]: 0.2
Binding of serum 1a to looped/cyclic peptides of protein N of SARS-CoV Urbani [2]: 0.2
Binding of serum 1b to linear peptides of protein N of SARS-CoV Urbani [2]: 0.1
Binding of serum 1b to looped/cyclic peptides of protein N of SARS-CoV Urbani [2]: 0.1
Binding of serum 2 to linear peptides of protein N of SARS-CoV Urbani [2]: 0.4
Binding of serum 2 to looped/cyclic peptides of protein N of SARS-CoV Urbani [2]: 0.2
Binding of serum 6 to linear peptides of protein N of SARS-CoV Urbani [2]: 0.2
Binding of serum 6 to looped/cyclic peptides of protein N of SARS-CoV Urbani [2]: 0.0
Binding of serum 37 to linear peptides of protein N of SARS-CoV Urbani [2]: 0.8
Binding of serum 37 to looped/cyclic peptides of protein N of SARS-CoV Urbani [2]: 0.4
Binding of serum 62 to linear peptides of protein N of SARS-CoV Urbani [2]: 0.6
Binding of serum 62 to looped/cyclic peptides of protein N of SARS-CoV Urbani [2]: 0.2
Binding of serum London to linear peptides of protein N of SARS-CoV Urbani [2]: 0.4
Binding of serum London to looped/cyclic peptides of protein N of SARS-CoV Urbani [2]: 0.2
Binding of serum SARS-green to linear peptides of protein N of SARS-CoV Urbani [2]: 0.1
Binding of serum SARS-green to looped/cyclic peptides of protein N of SARS-CoV Urbani [2]: 0.0
Binding of serum SARS-yellow to linear peptides of protein N of SARS-CoV Urbani [2]: 0.8
Binding of serum SARS-yellow to looped/cyclic peptides of protein N of SARS-CoV Urbani [2]: 0.2
Binding of antibody 03-018 to linear peptides of the N protein of SARS-CoV Urbani [3]: 0.1
Binding of antibody 03-018 to looped/cyclic peptides of the N protein of SARS-CoV Urbani [3]: 0.2
Control Serum Blood-Bank Looped peptides [4]: 0.3
Control serum Blood-bank linear peptides [4]: 0.6
Control serum LUMC linear peptides [4]: 0.7
Control serum LUMC looped peptides [4]: 0.3

NKHIDAYKTFPPTEP
Binding of a rabbit serum to linear peptides of protein N of SARS-CoV Urbani (Rabbit serum linear peptides) [1]: 0.0
Binding of a rabbit serum to looped/cyclic peptides of protein N of SARS-CoV Urbani (Rabbit serum looped peptides) [1]: 0.3
Binding of serum 1a to linear peptides of protein N of SARS-CoV Urbani [2]: 0.2
Binding of serum 1a to looped/cyclic peptides of protein N of SARS-CoV Urbani [2]: 0.3
Binding of serum 1b to linear peptides of protein N of SARS-CoV Urbani [2]: 0.1
Binding of serum 1b to looped/cyclic peptides of protein N of SARS-CoV Urbani [2]: 0.1
Binding of serum 2 to linear peptides of protein N of SARS-CoV Urbani [2]: 0.1
Binding of serum 2 to looped/cyclic peptides of protein N of SARS-CoV Urbani [2]: 0.2
Binding of serum 6 to linear peptides of protein N of SARS-CoV Urbani [2]: 0.2
Binding of serum 6 to looped/cyclic peptides of protein N of SARS-CoV Urbani [2]: 0.1
Binding of serum 37 to linear peptides of protein N of SARS-CoV Urbani [2]: 0.6
Binding of serum 37 to looped/cyclic peptides of protein N of SARS-CoV Urbani [2]: 0.4
Binding of serum 62 to linear peptides of protein N of SARS-CoV Urbani [2]: 0.5
Binding of serum 62 to looped/cyclic peptides of protein N of SARS-CoV Urbani [2]: 0.3
Binding of serum London to linear peptides of protein N of SARS-CoV Urbani [2]: 0.5
Binding of serum London to looped/cyclic peptides of protein N of SARS-CoV Urbani [2]: 0.3
Binding of serum SARS-green to linear peptides of protein N of SARS-CoV Urbani [2]: 0.3
Binding of serum SARS-green to looped/cyclic peptides of protein N of SARS-CoV Urbani [2]: 0.3
Binding of serum SARS-yellow to linear peptides of protein N of SARS-CoV Urbani [2]: 0.6
Binding of serum SARS-yellow to looped/cyclic peptides of protein N of SARS-CoV Urbani [2]: 0.2
Binding of antibody 03-018 to linear peptides of the N protein of SARS-CoV Urbani [3]: 0.1
Binding of antibody 03-018 to looped/cyclic peptides of the N protein of SARS-CoV Urbani [3]: 0.2
Control Serum Blood-Bank Looped peptides [4]: 0.5
Control serum Blood-bank linear peptides [4]: 0.6
Control serum LUMC linear peptides [4]: 0.5
Control serum LUMC looped peptides [4]: 0.4

DGKMKELSPRWYFYY
Binding of a rabbit serum to linear peptides of protein N of SARS-CoV Urbani (Rabbit serum linear peptides) [1]: 0.1
Binding of a rabbit serum to looped/cyclic peptides of protein N of SARS-CoV Urbani (Rabbit serum looped peptides) [1]: 0.6
Binding of serum 1a to linear peptides of protein N of SARS-CoV Urbani [2]: 0.2
Binding of serum 1a to looped/cyclic peptides of protein N of SARS-CoV Urbani [2]: 0.4
Binding of serum 1b to linear peptides of protein N of SARS-CoV Urbani [2]: 0.1
Binding of serum 1b to looped/cyclic peptides of protein N of SARS-CoV Urbani [2]: 0.3
Binding of serum 2 to linear peptides of protein N of SARS-CoV Urbani [2]: 0.2
Binding of serum 2 to looped/cyclic peptides of protein N of SARS-CoV Urbani [2]: 0.5
Binding of serum 6 to linear peptides of protein N of SARS-CoV Urbani [2]: 0.1
Binding of serum 6 to looped/cyclic peptides of protein N of SARS-CoV Urbani [2]: 0.4
Binding of serum 37 to linear peptides of protein N of SARS-CoV Urbani [2]: 0.5
Binding of serum 37 to looped/cyclic peptides of protein N of SARS-CoV Urbani [2]: 0.8
Binding of serum 62 to linear peptides of protein N of SARS-CoV Urbani [2]: 0.5
Binding of serum 62 to looped/cyclic peptides of protein N of SARS-CoV Urbani [2]: 0.7
Binding of serum London to linear peptides of protein N of SARS-CoV Urbani [2]: 0.4
Binding of serum London to looped/cyclic peptides of protein N of SARS-CoV Urbani [2]: 0.5
Binding of serum SARS-green to linear peptides of protein N of SARS-CoV Urbani [2]: 0.4
Binding of serum SARS-green to looped/cyclic peptides of protein N of SARS-CoV Urbani [2]: 0.4
Binding of serum SARS-yellow to linear peptides of protein N of SARS-CoV Urbani [2]: 0.5
Binding of serum SARS-yellow to looped/cyclic peptides of protein N of SARS-CoV Urbani [2]: 0.5
Binding of antibody 03-018 to linear peptides of the N protein of SARS-CoV Urbani [3]: 0.1
Binding of antibody 03-018 to looped/cyclic peptides of the N protein of SARS-CoV Urbani [3]: 0.2
Binding of Control Serum Blood-Bank to Looped peptides [4]: 0.8
Binding of Control serum Blood-bank to linear peptides [4]: 0.8
Binding of Control serum LUMC to linear peptides [4]: 0.6
Binding of Control serum LUMC to looped peptides [4]: 0.7
